Source: ChEMBL document CHEMBL1201862, “PubChem BioAssay data set” (2004)
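Growth conditions: 96-well plates. Treatment: test compound, 48 hours, 5 concentrations. Analysis: linear interpolation between bracketing concentrations; unreached endpoints set to highest concentration. Here, GI50 denotes the concentration required for 50% inhibition of growth.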 Active and inactive are the calls of the source. No stated cut-off is given here; in the data, active = GI50 up to about 1.1 µM and inactive = higher. Square brackets hold non-standard residues; d marks the D form. Peptide text beside a SMILES is read from it. * marks the point of attachment. X26 = COC1=CC(=O)N(C(=O)[C@@H](O*)C(C)C)[C@H]1Cc1ccccc1; NMeL = CN[C@@H](CC(C)C)C(=O)O; Hexanoyl = CCCCCC(=O)*

Columns and labels:
Assay in all cases: NCI anticancer screen, dose series, 48 h
[1] = test system: Hs-578T
[2] = test system: RPMI-8226
[3] = test system: DU-145
[4] = test system: SN12C
[5] = test system: SNB-75
[6] = test system: U-251
[7] = test system: HL-60
[8] = test system: BT-549
[9] = test system: NCI-H226
[10] = test system: NCI-H460
[11] = test system: HOP-92
[12] = test system: Malme-3M
[13] = test system: MDA-N
[14] = test system: TK-10
[15] = test system: SNB-19
[16] = test system: OVCAR-3
[17] = test system: UACC-257
[18] = test system: SK-OV-3
[19] = test system: OVCAR-4

Measured: GI50

O=c1[nH]c(=O)n(CCOCP(=O)(O)O)nc1Br
inactive: [1] > 100 µM | [2] > 100 µM | [3] > 100 µM | [4] > 100 µM | [5] > 100 µM | [6] > 100 µM | [7] > 100 µM | [8] > 100 µM | [9] > 100 µM | [10] > 100 µM | [11] > 100 µM | [12] > 100 µM | [13] > 100 µM | [14] > 100 µM | [15] > 100 µM | [16] > 100 µM

O=C1C(Cl)=CC2(C=C1Cl)CCNC1=C2C(=O)c2nc[nH]c2C1=O
inactive: [1] > 100 µM | [2] 30.5 µM | [17] 18.6 µM | [3] > 100 µM | [4] 36.5 µM | [5] 97.5 µM | [6] 26.5 µM | [7] 24.4 µM | [8] 26.3 µM | [9] 75.2 µM | [10] 40.3 µM | [11] 42.4 µM | [12] 24.3 µM | [13] 18.5 µM | [14] > 100 µM | [18] > 100 µM | [15] 32.3 µM | [16] 32.3 µM | [19] 58.7 µM

CN(C)/C=N/c1c2c(nc3ccccc13)CCCC2
inactive: [1] > 100 µM | [2] 53.3 µM | [17] 71 µM | [3] > 100 µM | [4] > 100 µM | [5] 93.8 µM | [6] > 100 µM | [7] 31.1 µM | [8] > 100 µM | [9] 36 µM | [11] 33.1 µM | [12] > 100 µM | [13] 61.7 µM | [14] > 100 µM | [18] > 100 µM | [15] > 100 µM | [16] 38.6 µM | [19] 75.2 µM

Cc1ccc2c(c1C)CC1(Cc3c(C)ccc(C)c3C1=O)C2=O (stereo unspecified)
inactive: [1] > 100 µM | [2] > 100 µM | [17] > 100 µM | [3] > 100 µM | [4] > 100 µM | [5] > 100 µM | [6] > 100 µM | [7] > 100 µM | [8] > 100 µM | [9] > 100 µM | [10] > 100 µM | [11] > 100 µM | [12] > 100 µM | [13] > 100 µM | [14] > 100 µM | [18] > 100 µM | [15] > 100 µM | [19] > 100 µM

CC1(C)OC2[C@@H](CO[C@@]3([C@H]4OC(C)(C)O[C@@H]4CO)OC(C)(C)O[C@@H]23)O1 (stereo partly specified)
inactive: [1] > 100 µM | [2] > 100 µM | [3] > 100 µM | [4] > 100 µM | [5] > 100 µM | [6] > 100 µM | [7] > 100 µM | [8] > 100 µM | [9] > 100 µM | [10] > 100 µM | [11] > 100 µM | [12] > 100 µM | [13] > 100 µM | [14] > 100 µM | [18] > 100 µM | [15] > 100 µM | [16] > 100 µM | [19] > 100 µM

CCOC(=O)NC(Nc1ccc(OC(F)(F)F)cc1)(C(F)(F)F)C(F)(F)F
inactive: [1] > 100 µM | [2] > 100 µM | [17] > 100 µM | [3] > 100 µM | [4] > 100 µM | [5] > 100 µM | [6] > 100 µM | [7] > 100 µM | [8] > 100 µM | [9] > 100 µM | [10] > 100 µM | [11] > 100 µM | [12] > 100 µM | [13] > 100 µM | [14] > 100 µM | [18] > 100 µM | [15] > 100 µM | [16] > 100 µM

C=CCOc1ccc(C2(c3ccc(OCC=C)cc3)C(=O)Nc3ccccc32)cc1
inactive: [1] 1.46 µM | [2] > 10 µM | [17] > 10 µM | [3] > 10 µM | [4] > 10 µM | [5] > 10 µM | [6] > 10 µM | [7] > 10 µM | [8] 9.31 µM | [9] > 10 µM | [10] > 10 µM | [11] > 10 µM | [12] > 10 µM | [13] > 10 µM | [14] > 10 µM | [18] > 10 µM | [15] > 10 µM | [16] > 10 µM | [19] 3.4 µM

[N-]=[N+]=Nc1c(-c2ccccc2)c(=O)n(-c2ccccc2)c2ccccc12
inactive: [1] 56.9 µM | [2] > 100 µM | [17] 65.8 µM | [3] > 100 µM | [4] 60.8 µM | [5] 36.4 µM | [6] 52.1 µM | [7] > 100 µM | [8] > 100 µM | [9] 91.4 µM | [10] 46.5 µM | [11] 49.4 µM | [12] 19.3 µM | [13] 45.3 µM | [14] > 100 µM | [18] > 100 µM | [16] 52 µM | [19] 64 µM

C[n+]1ccc(/C2=C3\C=CC(=N3)/C(c3cc[n+](C)cc3)=c3/cc/c([nH]3)=C(\c3cc[n+](C)cc3)C3=N/C(=C(/c4cc[n+](C)cc4)C4C=CC2N4)C=C3)cc1
inactive: [1] > 80 µM | [2] > 48.2 µM | [17] > 48.5 µM | [3] > 100 µM | [4] > 100 µM | [5] 51.1 µM | [6] 3.93 µM | [7] > 100 µM | [8] > 100 µM | [9] > 75.7 µM | [10] 32.9 µM | [11] > 100 µM | [12] > 100 µM | [13] > 100 µM | [14] > 100 µM | [18] > 85.3 µM | [15] > 100 µM | [16] > 95.5 µM | [19] > 70 µM

CCCCCC(=O)N[C@H](C(=O)N[C@H](C(=O)N(C)[C@@H](CC(C)C)C(=O)N1CCC[C@H]1C(=O)N1CCC[C@H]1C(=O)O[C@H](C(=O)N1C(=O)C=C(OC)[C@@H]1Cc1ccccc1)C(C)C)C(C)C)C(C)C (Hexanoyl-VV[NMeL]PP-X26)
inactive: [1] > 88.3 µM | [2] 2.74 µM | [17] 45.3 µM | [3] > 43.8 µM | [4] 35.6 µM | [5] 19.5 µM | [6] > 91.6 µM | [7] 1.46 µM | [8] 83.4 µM | [9] > 100 µM | [10] > 100 µM | [11] 36.1 µM | [12] > 20.5 µM | [13] 28.3 µM | [14] > 100 µM | [18] > 100 µM | [16] > 100 µM | [19] > 76.9 µM
